# Reference: patent US20250161253A1, “NUTRITIONAL PRODUCT” (VITAFLO (INTERNATIONAL) LTD, priority 2012, published 2025)
# Columns and labels:
# SH-SY5Y cells [1] = experiment: electron microscopy analysis of mitochondrial density and morphology in SH-SY5Y cells; type: cell-based, human; conditions: 250 μM, p<0.002
# Experimental: Additionally, SH-SY5Y cells were prepared for electron microscopy (EM) analysis to assess mitochondrial density and morphology following treatment with decanoic acid.
# SH-SY5Y cells [2] = experiment: Complex I activity in SH-SY5Y cells; type: cell-based, human; conditions: 250 μM, 6 days
# Experimental: In order to gain further independent insight into mitochondrial function, the activity of the respiratory chain enzyme, Complex I, was also evaluated. In a second experiment, cells were exposed to decanoic acid (250 μM, dissolved in 0.5% DMSO) for 6 days. The cells were subsequently harvested, and the activity of Complex I was determined. Each experiment was repeated 5 times, and the activity was expressed as nmol/min/mg of cellular protein.
# [3] = system: primary human fibroblasts; experiment: citrate synthase activity in primary human fibroblasts; type: cell-based; conditions: 250 μM, 6 days
# Experimental: Finally, the effect of decanoic acid was validated in an independent cell line. Primary cultures of human fibroblasts were exposed to decanoic acid at a concentration of 250 μM for 6 days. Following the incubation, citrate synthase activity was again assessed.
# SH-SY5Y cells [4] = experiment: citrate synthase activity in SH-SY5Y cells (marker of mitochondrial enrichment); type: cell-based, human; conditions: 6 days; for effect on citrate synthase activity compared to control cells (in words): 50-300 μM
# Experimental: Mitochondrial enrichment was estimated by evaluation of citrate synthase activity (corrected for total cellular protein content). This enzyme is localised at the mitochondria, comprises part of the TCA cycle and is commonly used as a marker of mitochondrial enrichment. A human neuroblastoma cell line (SH-SY5Y) was utilised throughout this study, except where stated. In brief, cells were exposed to a range (50-300 μM, dissolved in 0.5% DMSO) of either octanoic or decanoic acid concentrations. After 6 days, the cells were harvested and citrate synthase activity was determined. Activity was expressed as nmol/min/mg of cellular protein.
Structure (SMILES),number of mitochondria per cell (EM) (SH-SY5Y cells [1]),Complex I activity with respect to control (SH-SY5Y cells [2]; p<0.002),Complex I activity normalised against citrate synthase activity (SH-SY5Y cells [2]; p<0.05),increase in citrate synthase activity [3],"increase in citrate synthase activity compared to control cells (SH-SY5Y cells [4]; 250 μM, maximum, p<0.001)","citrate synthase activity (SH-SY5Y cells [4]; 250 μM, n = 8, control 105 ± 5)",effect on citrate synthase activity compared to control cells (in words) (SH-SY5Y cells [4])
"CCCCCCCCCC(=O)O [Decanoic Acid, decanoic acid]",significant (p<0.002) increase,significant (p<0.002) increase,significant (p<0.05) increase,45%,30%,137 ± 5 nmol/min/mg cell protein,dose dependent
"CCCCCCCC(=O)O [Octanoic acid, octanoic acid, reference compound]",,,,,,,no effect
